In patent US10011615B2, “Heterobicyclo-substituted [1,2,4]triazolo[1,5-c]quinazolin-5-amine compounds with A2A anatagonist properties” (Merck Sharp & Dohme Corp., priority 2012, dated 2018):
pEC50: −log10 of the molar value. “And” between values parts separate entries of the source, which are not always exact repeats. Equal values may be shown once.

What follows are compounds tested against T1, human A2a receptor (Homo sapiens, UniProt P29274) (assay: A2a receptor competition binding assay using Scintillation Proximity technology). Conditions: membranes from HEK293 cells expressing human A2a receptor; 0.5 nM tritiated radioligand; SPA beads; 1 h room temperature.
T1 construct: purchased Perkin-Elmer RBHA2AM400UA; host or cells: HEK293 cell membranes
Experimental: Binding affinities of compounds of the invention for the human A2a receptor were determined in a competition binding assay using Scintillation Proximity technology. Thus, 0.3 μg of membranes from HEK293 cells expressing the human A2a receptor were incubated with a compound of the invention at concentrations ranging from 3000 nM to 0.15 nM in a reaction mixture containing also 0.5 nM of a tritiated form of 5-amino-7-[2-phenethyl]-2-(furan-2-yl)-7H-pyrazolo[4,3-e][1,2,4]triazolo[1,5-c]pyrimidine (the tritiated compound) and 100 μg of wheat germ agglutin-coated yttrium silicate SPA beads for one hour at room temperature with agitation. The beads were then allowed to settle to the bottom of the wells for 1 hr, after which the membrane-associated radioactivity was determined by scintillation counting in a TopCount microplate reader. Ki values were determined using the Cheng-Prusoff equation.
Summary of Materials and Methods Used in A2a Activity Determination:
HEK293 cells expressing the human, rat, dog or monkey adenosine 2a receptor (Purchased from Perkin-Elmer # RBHA2AM400UA).
The Tritiated compound was prepared in-house by MRL Radiochemistry according to published methods.
Wheat germ agglutinin-coated yttrium silicate SPA beads (GE Healthcare#RPNQ0023). Dilute to 25 mg/ml in assay buffer.
Assay Buffer was prepared in house: Dulbecco's calcium and magnesium free phosphate buffered saline+10 mM MgCl2
Adenosine deaminase from calf intestine, 10 mg/2 ml (Roche) 10 102 105 001).
A2a antagonist standard (9-chloro-1-(2-furanyl)-[1,2,4]triazolo1,5-c]quinazolin-5-amine from Tocris Bioscience)
Make eight 1:3 serial dilutions in 100% DMSO from a 3 mM compound stock
Transfer 50 nl of compound into a 384-well OptiPlate (Perkin Elmer).
Typically, final concentrations of compound used in the assay ranged from 3000 nM to 0.152 nM.
Dilute a solution of the Tritiated compound to 1.25 nM in assay buffer. This is a 2.5× solution. The final concentration in the assay is 0.5 nM. Calculate the concentration by counting two 5 μl aliquots.
Use 0.25 ug of membrane/well. Dilute membranes to 9.7 μg/ml in assay buffer. Treat with 20 ug/ml adenosine deaminase (ADA) for 15 minutes at room temperature to degrade endogenous adenosine.
Use 100 μg/well wheat germ agglutinin-coated yttrium silicate SPA beads.
Mix ADA-treated membranes and SPA beads together for 30 min prior to assay.
To the Perkin-Elmer Optiplate-384 containing the compound titration add 20 μl of 2.5× solution of the Tritiated compound and 30 μl of the membrane-bead mixture. Incubate for one hour at room temperature with agitation.
Include total binding (assay buffer+1% DMSO) and non-specific binding (CGS15943, 1 μM) wells.
Allow the beads to settle for one hour.
A curve fitting program (i.e., Prism, Activity Base, Chemcart) is used to determine the EC50. The Ki value is calculated using the Cheng-Prusoff equation: K i=EC50/(1+(radioligand concentration/Kd)).

T1 sequence (P29274 whole entry): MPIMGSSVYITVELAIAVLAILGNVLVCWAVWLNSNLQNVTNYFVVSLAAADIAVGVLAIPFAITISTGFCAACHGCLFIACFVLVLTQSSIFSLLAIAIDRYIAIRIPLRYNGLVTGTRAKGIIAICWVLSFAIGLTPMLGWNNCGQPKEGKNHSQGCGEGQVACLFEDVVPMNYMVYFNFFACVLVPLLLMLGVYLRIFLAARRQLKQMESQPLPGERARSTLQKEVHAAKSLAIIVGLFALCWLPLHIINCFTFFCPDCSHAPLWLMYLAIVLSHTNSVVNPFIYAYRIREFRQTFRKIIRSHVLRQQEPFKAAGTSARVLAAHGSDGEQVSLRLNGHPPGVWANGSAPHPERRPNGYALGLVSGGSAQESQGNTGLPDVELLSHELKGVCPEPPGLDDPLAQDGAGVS

SMILES	pEC50
COc1cccc2c1nc(N)n1nc(CN3CCn4c(nnc4C(=O)NC(C)(C)C)C3)nc21 [Ex-143, 7-((5-amino-7-methoxy-[1,2,4]triazolo[1,5-c]quinazolin-2-yl)methyl)-N-tert-butyl-5,6,7,8-tetrahydro-[1,2,4]triazolo[4,3-a]pyrazine-3-carboxamide]	7.13
COc1cccc2c1nc(N)n1nc(CN3CCc4ccc(-c5cncnc5)cc4C3)nc21 [Ex-165, 7-methoxy-2-((7-(pyrimidin-5-yl)-3,4-dihydroisoquinolin-2(1H)-yl)methyl)-[1,2,4]triazolo[1,5-c]quinazolin-5-amine]	8.36
COc1cccc2c1nc(N)n1nc(CCN3CCc4sc(C)nc4C3)nc21 [Ex-25, 7-methoxy-2-(2-(2-methyl-6,7-dihydrothiazolo[4,5-c]pyridin-5(4H)-yl)ethyl)-[1,2,4]triazolo[1,5-c]quinazolin-5-amine]	9.05
COc1cccc2c1nc(N)n1nc(CC(CF)N3Cc4cccnc4C3)nc21 (stereo not shown) [Ex-104]	8.00 and 7.84
Nc1nc2c(F)cccc2c2nc(CCN3CCc4ccccc4C3)nn12 [Ex-87]	7.72
CCN1CCN(c2ccnc3c2CCN(CCc2nc4c5cccc(OC)c5nc(N)n4n2)C3)CC1 [Ex-73, 2-(2-(4-(4-ethylpiperazin-1-yl)-5,6-dihydro-1,7-naphthyridin-7(8H)-yl)ethyl)-7-methoxy-[1,2,4]triazolo[1,5-c]quinazolin-5-amine]	8.52
COc1cccc2c1nc(N)n1nc(CCCN3Cc4ccc(F)cc4C3)nc21 [Ex-229]	7.83
COc1cccc2c1nc(N)n1nc(CN3CCn4c(Br)nnc4C3)nc21 [Ex-140, 2-((3-bromo-5,6-dihydro-[1,2,4]triazolo[4,3-a]pyrazin-7(8H)-yl)methyl)-7-methoxy-[1,2,4]triazolo[1,5-c]quinazolin-5-amine]	6.98
Nc1nc2cc(F)c(F)cc2c2nc(CCN3Cc4cccnc4C3)nn12 [Ex-99]	6.95
COc1cccc2c1nc(N)n1nc(CN3CCc4cccc(CN5CCN(c6ccccn6)CC5)c4C3)nc21 [Ex-126, 7-methoxy-2-((8-((4-(pyridin-2-yl)piperazin-1-yl)methyl)-3,4-dihydroisoquinolin-2(1H)-yl)methyl)-[1,2,4]triazolo[1,5-c]quinazolin-5-amine]	7.50
COc1cccc2c1nc(N)n1nc(CCN3Cc4oc(C)nc4CC3C)nc21 (stereo not shown) [Ex-237, 2-(2-(2,6-dimethyl-6,7-dihydrooxazolo[5,4-c]pyridin-5(4H)-yl)ethyl)-7-methoxy-[1,2,4]triazolo[1,5-c]quinazolin-5-amine]	8.46
CCN1CCN(c2ccc3c(n2)CN(CCc2nc4c5cccc(OC)c5nc(N)n4n2)C3)CC1 [Ex-66]	7.78
COc1cccc2c1nc(N)n1nc(CCN3Cc4cnc(C(F)(F)F)nc4C3)nc21 [Ex-18, 7-methoxy-2-(2-(2-(trifluoromethyl)-5H-pyrrolo[3,4-d]pyrimidin-6(7H)-yl)ethyl)-[1,2,4]triazolo[1,5-c]quinazolin-5-amine]	7.88
COc1cccc2c1nc(N)n1nc(CN3CCCc4ncccc43)nc21 [Ex-133, 2-((3,4-dihydro-1,5-naphthyridin-1(2H)-yl)methyl)-7-methoxy-[1,2,4]triazolo[1,5-c]quinazolin-5-amine]	7.56
COc1cccc2c1nc(N)n1nc(CCN3Cc4ccc(N5CCOC(C)(C)C5)nc4C3)nc21 [Ex-68]	8.15
COc1cccc2c1nc(N)n1nc(CCN3CCc4c(cnn4C4CC4)C3)nc21 [Ex-7, 2-(2-(1-cyclopropyl-6,7-dihydro-1H-pyrazolo[4,3-c]pyridin-5(4H)-yl)ethyl)-7-methoxy-[1,2,4]triazolo[1,5-c]iquinazolin-5-amine]	8.85

SMILES	pEC50
COc1cccc2c1nc(N)n1nc(CN3CCCc4cccnc43)nc21 [Ex-161, 2-((3,4-dihydro-1,8-naphthyridin-1(2H)-yl)methyl)-7-methoxy-[1,2,4]triazolo[1,5-c]quinazolin-5-amine]	8.68
COc1cccc2c1nc(N)n1nc(CCCN3Cc4cccnc4C3)nc21 [Ex-227, 2-(3-(5H-pyrrolo[3,4-b]pyridin-6(7H)-yl)propyl)-7-methoxy-[1,2,4]triazolo[1,5-c]quinazolin-5-amine]	8.11
COc1cccc2c1nc(N)n1nc(CN3CCc4ccc(-c5cnn(C)c5)cc4C3)nc21 [Ex-180]	8.05
Nc1nc2c(F)cccc2c2nc(CCN3Cc4cccnc4C3)nn12 [Ex-83, 2-[2-(5,7-dihydro-6H-pyrrolo[3,4-b]pyridin-6-yl)ethyl]-7-fluoro[1,2,4]triazolo[1,5-c]quinazolin-5-amine]	7.80
COc1cccc2c1nc(N)n1nc(CCN3CCn4nc(C)cc4C3)nc21 [Ex-41, 7-methoxy-2-(2-(2-methyl-6,7-dihydropyrazolo[1,5-a]pyrazin-5(4H)-yl)ethyl)-[1,2,4]triazolo[1,5-c]quinazolin-5-amine]	8.59
COc1cccc2c1nc(N)n1nc(CN3CCCc4ccccc4C3)nc21 [Ex-132, 2-((4,5-dihydro-1H-benzo[c]azepin-2(3H)-yl)methyl)-7-methoxy-[1,2,4]triazolo[1,5-c]quinazolin-5-amine]	8.10
COc1cccc2c1nc(N)n1nc(CCN3Cc4nc(C)oc4C3)nc21 [Ex-244, 7-methoxy-2-(2-(2-methyl-4H-pyrrolo[3,4-d]oxazol-5(6H)-yl)ethyl)-[1,2,4]triazolo[1,5-c]quinazolin-5-amine]	9.52
COc1cccc2c1nc(N)n1nc(CCN3CCc4ccc(-c5cncnc5)cc4C3)nc21 [Ex-172, 7-methoxy-2-(2-(7-(pyrimidin-5-yl)-3,4-dihydroisoquinolin-2(1H)-yl)ethyl)-[1,2,4]triazolo[1,5-c]quinazolin-5-amine]	8.21
COc1cccc2c1nc(N)n1nc(CN3Cc4nnc(C(F)(F)F)n4C(C)(C)C3)nc21 [Ex-145, 2-((5,5-dimethyl-3-(trifluoromethyl)-5,6-dihydro-[1,2,4]triazolo[4,3-a]pyrazin-7(8H)-yl)methyl)-7-methoxy-[1,2,4]triazolo[1,5-c]quinazolin-5-amine]	7.32
COc1cccc2c1nc(N)n1nc(C[C@H](C)N3CCc4nc(C)oc4C3)nc21 [Ex-212, (S)-7-methoxy-2-(2-(2-methyl-6,7-dihydrooxazolo[5,4-c]pyridin-5(4H)-yl)propyl)-[1,2,4]triazolo[1,5-c]quinazolin-5-amine]	8.21
COc1cccc2c1nc(N)n1nc(CCN3Cc4nc(C5CC5)oc4C3)nc21 [Ex-245]	9.00
COc1cccc2c1nc(N)n1nc(CCN3CCc4cc(F)ccc4C3)nc21 [Ex-44, 2-(2-(6-fluoro-3,4-dihydroisoquinolin-2(1H)-yl)ethyl)-7-methoxy-[1,2,4]triazolo[1,5-c]quinazolin-5-amine]	8.38
COc1cccc2c1nc(N)n1nc(CN3Cc4cccnc4C3)nc21 [Ex-118, 2-((5H-pyrrolo[3,4-b]pyridin-6(7H)-yl)methyl)-7-methoxy-[1,2,4]triazolo[1,5-c]quinazolin-5-amine]	8.27
COc1cccc2c1nc(N)n1nc(CCCN3Cc4cccc(F)c4C3)nc21 [Ex-228, 2-(3-(4-fluoroisoindolin-2-yl)propyl)-7-methoxy-[1,2,4]triazolo[1,5-c]quinazolin-5-amine]	8.11
COc1cccc2c1nc(N)n1nc(CCN3CCc4[nH]nc(C(F)(F)F)c4C3)nc21 [Ex-38, 7-methoxy-2-(2-(3-(trifluoromethyl)-6,7-dihydro-1H-pyrazolo[4,3-c]pyridin-5(4H)-yl)ethyl)-[1,2,4]triazolo[1,5-c]quinazolin-5-amine]	8.70
